Values quoted from earlier work, collected in patent US20250319022A1, “CONCENTRATED SOLUTIONS COMPRISING SODIUM 5,10-METHYLENE-(6R)-TETRAHYDROFOLATE” (Merck Patent GMBH, priority 2022, published 2025).

purity after 7 hours (7 hours after dissolution): 84%
purity after 24 hours compared to the starting purity (% normalized purity) (24 hours following dissolution in water): 44.9%
loss of purity per hour (degradation rate) (reconstituted lyophilizate, linear regression of stability profile): 2.3 % purity per hour
Structure (SMILES): Nc1nc2c(c(=O)[nH]1)N1CN(c3ccc(C(=O)N[C@@H](CCC(=O)O)C(=O)O)cc3)C[C@H]1CN2 [5,10-methylene-(6R,S)-tetrahydrofolic acid]
